This is an account of results in patent publication US20120071533A1, “ANTI-FUNGAL FORMULATION” (priority 2009, published 2012).

Structures are written as SMILES. Where “and” joins values, the source holds several entries; their conditions need not be identical. Identical values can stand only once. Marks after values point to notes of the source that are not given here.

One data set has as its system genus Candida. In words: In vitro antifungal activity (MIC) against the genus Candida. The format is cell-based. The procedure:
(§1) The antifungal activities of luliconazole, the Z form of luliconazole, and the SE form of luliconazole were determined. The compounds were tested against the genus Trichophyton and the genus Candida. The MICs against Trichophyton were 15-250 times higher for the Z form and 120-1000 times higher for the S-E form than for luliconazole. The MICs against the genus Candida were 4-500 times higher for the Z form and 8-1000 times higher for the S-E form than for luliconazole.

For data set [1] the following is noted: cited from earlier work.
The test system of data set [2] is Trichophyton rubrum, Trichophyton mentagrophytes and Trichophyton tonsurans. Conditions: versus terbinafine, liranaftate, butenafine, amorolfine, ketoconazole, clotrimazole, neticonazole, miconazole, bifonazole; cited from earlier work.
The subject of the next data set is genus Trichophyton. In words: In vitro antifungal activity (MIC) against the genus Trichophyton. In kind it is cell-based. Here is the method:
as §1

Data set [3] can be described thus: Visual observations of luliconazole solubility samples (crystals / clear solution). In kind it is physicochemical. Conditions: for concentration at which luliconazole was completely soluble (visual observations): pilot studies. Here is the method: (§2) Typically, luliconazole was weighed into a screw-cap glass vial, the desired solvent was added and the vial was tightly closed. The vials containing suspension were sonicated in an ultra-sonicator bath at 40° C. for 20-30 seconds; the vials were taken out of the bath and swirled to mix the contents. The sonication and swirling steps were repeated 3-4 times till most of the luliconazole was dissolved. […] The samples were stored at RT (21.5° C.,±1.5) and at 4° C. in tightly closed screw-cap glass vials. Sample preparation was conducted in a dark room under yellow light and samples were protected from light during storage.

Data set [4] in a line: Solubility of luliconazole in solvents and model formulations by UV spectrophotometer at 296 nm, 4° C. and RT (21.5° C., ±1.5). The format is physicochemical. The procedure: as §2
Solubility was determined after 24 hours and again after 3 days at respective storage conditions (RT and 4° C.) using a UV spectrophotometer (Pharma Spec 1700; Shimadzu). Samples for quantitative determination of solubility were drawn from the supernatant area of the suspension (solution) into a 3 ml syringe with a 0.1 μm (pore size) syringe filter (nylon, 13 mm) attached. The desired amount of solution was delivered into a 100 ml volumetric flask that was immediately closed tightly with a stopper and weighed accurately to determine the exact weight of the solution. As ethyl acetate is incompatible with the plastic in the syringe and the housing of the syringe-filter, the ethyl acetate solution was centrifuged at 4200 rpm for 5 minutes and the supernatant solution was drawn for analysis using a glass Pasteur pipette.
The samples taken in volumetric flasks were diluted with methanol to the mark and diluted further before analyzing on the UV spectrophotometer. A five point standard curve of luliconazole (at 20, 10, 6, 4 and 2 μg/ml) in methanol was determined by reading the absorbance at 296 nm. The samples were also read at 296 nm and the concentration of luliconazole was determined from the equation of the standard curve. The solubility of luliconazole in respective solvents and model formulations was then determined as % wt/wt.
Solubility was calculated as % wt/wt from the UV spectrophotometric data read at 296 nm.

The next data set concerns onychomycosis. The conditions noted are these: onychomycosis of the toenail; package insert; cited from earlier work.
The mark [5] stands for this setting: in Benzyl alcohol (theoretical 40%; #853-38-13).
Where [6] appears, read: in Ethanol (theoretical 3.5%; #853-38-15).
Where [7] appears, read: in Ethyl acetate (theoretical 6.5%; #853-38-12).
[8] abbreviates: in Transcutol P (theoretical 15%; #853-38-17).
Setting [9] is: in Acetone (theoretical 18%; #853-38-14).

Regarding `N#C/C(=C1/SC[C@@H](c2ccc(Cl)cc2Cl)S1)n1ccnc1` [luliconazole, (−)-(E)-[(4R)-(2,4-dichlorophenyl)-1,3-dithiolan-2-ylidene](1H-imidazol-1-yl)acetonitrile], the “MIC Range” value with genus Candida (C. albicans (6 strains)) is 30 to 250 ng/mL; against genus Candida (C. glabrata (5 strains)) it was “≦0.0080-0.030 μg/mL”; with genus Trichophyton (T. mentagrophytes (4 strains)) it was 1 to 2 ng/mL; against genus Trichophyton (T. rubrum (4 strains)), 0.24 to 0.5 ng/mL. Moreover, in data set [1], the solubility in water entry was “practically insoluble in water”. In addition, the “potency compared with reference drugs” value in data set [2] is “greater potency”. For the same compound, the “visual observations at 3 days/4° C.” value in data set [3] (setting [5]), in data set [3] (setting [7]) and in data set [3] (setting [8]) was “clear solution” each time. Further, the “visual observations at 3 days/RT” value in data set [3] (setting [5]), in data set [3] (setting [6]), in data set [3] (setting [7]) and in data set [3] (setting [8]) was “clear solution” throughout. The “concentration at which luliconazole was completely soluble (visual observations)” value in data set [3] (in Transcutol P) is recorded as around 15%; in data set [3] (in benzyl alcohol), around 40%. In addition, the “Solubility wt/wt % 4° C. 24 hr” value was 13.1 % wt/wt in data set [4] (setting [9]), 39.87 % wt/wt in data set [4] (setting [5]), 2.67 % wt/wt in data set [4] (setting [6]) and 6.14 % wt/wt in data set [4] (setting [7]). In addition, the “Solubility wt/wt % 4° C. 3 days” value in data set [4] (setting [9]) was 12 % wt/wt and 12.49 % wt/wt; in data set [4] (setting [5]) it was 40 % wt/wt and 39.18 % wt/wt; in data set [4] (setting [6]) it was 2.3 % wt/wt; in data set [4] (setting [8]) it was 14.78 % wt/wt. In addition, the “Solubility wt/wt % RT 24 hr” value in data set [4] (in Acetone (theoretical 18%; #853-38-14), average duplicate sample preparations) was 17.67* % wt/wt; in data set [4] (setting [5]), 40.19 % wt/wt; in data set [4] (setting [6]), 3.51 % wt/wt; in data set [4] (in Ethyl acetate (theoretical 6.5%; #853-38-12), average duplicate sample preparations), 6.58* % wt/wt; in data set [4] (in Isopropyl myristate (theoretical 5%; #853-38-10)), 0.4 % wt/wt and 0.41 % wt/wt; in data set [4] (in Propylene carbonate (theoretical 10%; #853-38-11)), 8.98 % wt/wt. The “Solubility wt/wt % RT 24 hr” value in data set [4] (setting [8]) is reported as 15.12 % wt/wt. The “Solubility wt/wt % RT 3 days” value in data set [4] (in Benzyl alcohol (50%; saturated solution; #802-24-01)) is 43 % wt/wt and 43.44 % wt/wt; in data set [4] (in Benzyl alcohol (theoretical 40%; #853-38-13), average duplicate sample preparations), 40 % wt/wt and 39.91* % wt/wt; in data set [4] (setting [8]) it was 14.89 % wt/wt.

With `CN(C/C=C/C#CC(C)(C)C)Cc1cccc2ccccc12` [terbinafine], the “patients with both mycological cure and clinical cure” value in the data set on onychomycosis was 38%.
